In ChEMBL document CHEMBL5465560, “Selectivity Literature for EUbOPEN Chemogenomic Library” (2024):
Blank lines part the entries; values can stand above or below the compound they belong to.

Experiments:
[1] = molecular target: Dual specificity mitogen-activated protein kinase kinase 2 (Homo sapiens) (UniProt P36507); assay: Selectivity interaction (Rxn Biology Kinase assay) EUB0001632a MAP2K2; conditions: at 10 µM
[2] = molecular target: T1, Mitogen-activated protein kinase 12 (Homo sapiens) (UniProt P53778); assay: Selectivity interaction (KinomeScan (DiscoverX)) EUB0000666a MAPK12; conditions: at 10 µM
T1 sequence (whole entry): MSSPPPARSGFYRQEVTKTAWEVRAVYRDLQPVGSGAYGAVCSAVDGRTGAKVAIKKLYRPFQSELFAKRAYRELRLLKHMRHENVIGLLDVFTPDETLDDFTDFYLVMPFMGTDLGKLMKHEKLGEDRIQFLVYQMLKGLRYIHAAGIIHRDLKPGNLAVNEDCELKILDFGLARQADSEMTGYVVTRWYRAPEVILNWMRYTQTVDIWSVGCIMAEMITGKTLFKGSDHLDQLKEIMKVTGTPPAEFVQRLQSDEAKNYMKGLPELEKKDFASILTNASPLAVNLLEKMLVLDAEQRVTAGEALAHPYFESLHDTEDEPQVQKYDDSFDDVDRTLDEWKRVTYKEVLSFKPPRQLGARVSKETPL

[3] = molecular target: Tyrosine-protein kinase Fgr (Homo sapiens) (UniProt P09769); assay: Selectivity interaction (KinomeScan (DiscoverX)) EUB0000607a FGR; conditions: at 10 µM
Tyrosine-protein kinase Fgr (Homo sapiens), sequence (P09769 2-529 limits assumed): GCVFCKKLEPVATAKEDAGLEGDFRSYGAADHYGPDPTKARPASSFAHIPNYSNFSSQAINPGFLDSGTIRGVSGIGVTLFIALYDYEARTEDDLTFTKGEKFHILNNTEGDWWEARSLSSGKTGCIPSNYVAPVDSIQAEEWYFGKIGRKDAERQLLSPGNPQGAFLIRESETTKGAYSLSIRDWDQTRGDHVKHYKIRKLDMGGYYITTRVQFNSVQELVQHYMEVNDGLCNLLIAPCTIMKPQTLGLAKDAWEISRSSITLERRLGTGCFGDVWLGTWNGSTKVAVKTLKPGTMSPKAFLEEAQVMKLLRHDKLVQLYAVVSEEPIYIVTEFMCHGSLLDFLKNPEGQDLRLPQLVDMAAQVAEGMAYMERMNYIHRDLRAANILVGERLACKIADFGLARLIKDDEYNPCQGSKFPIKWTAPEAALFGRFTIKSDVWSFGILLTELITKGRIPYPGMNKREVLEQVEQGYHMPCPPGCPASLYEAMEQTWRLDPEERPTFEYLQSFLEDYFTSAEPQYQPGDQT

[4] = molecular target: T2, Interleukin-1 receptor-associated kinase 3 (Homo sapiens) (UniProt Q9Y616); assay: Selectivity interaction (ActivX KiNativ screen (kinase selectivity in THP-1 cell lysates)) EUB0000639a IRAK3; type: subcellular; conditions: lysate, at 0.2 µM
T2 sequence (whole entry): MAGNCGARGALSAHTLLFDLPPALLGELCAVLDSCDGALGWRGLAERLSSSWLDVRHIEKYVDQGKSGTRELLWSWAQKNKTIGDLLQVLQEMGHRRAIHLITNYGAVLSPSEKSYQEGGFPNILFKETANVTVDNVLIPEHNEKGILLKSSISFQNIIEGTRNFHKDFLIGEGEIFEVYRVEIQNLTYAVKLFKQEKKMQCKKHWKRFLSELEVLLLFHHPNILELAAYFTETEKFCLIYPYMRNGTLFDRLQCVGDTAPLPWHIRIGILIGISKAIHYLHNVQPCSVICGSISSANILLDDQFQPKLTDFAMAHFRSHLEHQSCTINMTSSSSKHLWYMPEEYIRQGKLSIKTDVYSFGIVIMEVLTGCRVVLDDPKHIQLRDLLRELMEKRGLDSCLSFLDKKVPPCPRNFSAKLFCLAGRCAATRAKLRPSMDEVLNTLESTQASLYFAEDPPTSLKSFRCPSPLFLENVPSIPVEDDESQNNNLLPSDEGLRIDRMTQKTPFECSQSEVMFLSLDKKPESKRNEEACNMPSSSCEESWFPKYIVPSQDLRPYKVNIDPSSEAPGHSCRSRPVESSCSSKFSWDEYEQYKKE

[5] = molecular target: LIM domain kinase 1 (Homo sapiens) (UniProt P53667); assay: Selectivity interaction (KinomeScan (DiscoverX)) EUB0000655a LIMK1; conditions: at 10 µM
LIM domain kinase 1 (Homo sapiens), sequence (P53667 whole entry, looked up, the tested form may be a part): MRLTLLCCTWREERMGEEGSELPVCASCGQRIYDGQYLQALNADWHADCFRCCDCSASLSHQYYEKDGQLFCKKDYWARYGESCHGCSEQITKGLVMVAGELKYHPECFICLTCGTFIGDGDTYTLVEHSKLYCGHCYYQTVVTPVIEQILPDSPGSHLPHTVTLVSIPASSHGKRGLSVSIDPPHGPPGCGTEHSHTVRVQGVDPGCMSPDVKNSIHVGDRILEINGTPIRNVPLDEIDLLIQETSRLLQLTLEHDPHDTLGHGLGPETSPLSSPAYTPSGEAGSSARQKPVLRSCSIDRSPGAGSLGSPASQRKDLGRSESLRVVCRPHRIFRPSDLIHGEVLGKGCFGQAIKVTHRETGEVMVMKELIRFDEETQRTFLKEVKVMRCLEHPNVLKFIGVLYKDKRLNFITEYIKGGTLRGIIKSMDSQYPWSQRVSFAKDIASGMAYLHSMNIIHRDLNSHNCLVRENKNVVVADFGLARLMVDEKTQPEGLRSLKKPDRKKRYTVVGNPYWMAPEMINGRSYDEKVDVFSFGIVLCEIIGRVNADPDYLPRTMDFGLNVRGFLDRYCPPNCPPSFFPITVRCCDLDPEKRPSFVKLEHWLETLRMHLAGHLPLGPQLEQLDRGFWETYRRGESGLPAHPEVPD

[6] = molecular target: T3, Tyrosine-protein kinase ITK/TSK (Homo sapiens) (UniProt Q08881); assay: Selectivity interaction (KinomeScan (DiscoverX)) EUB0001079a ITK; conditions: at 1 µM
T3 sequence (whole entry): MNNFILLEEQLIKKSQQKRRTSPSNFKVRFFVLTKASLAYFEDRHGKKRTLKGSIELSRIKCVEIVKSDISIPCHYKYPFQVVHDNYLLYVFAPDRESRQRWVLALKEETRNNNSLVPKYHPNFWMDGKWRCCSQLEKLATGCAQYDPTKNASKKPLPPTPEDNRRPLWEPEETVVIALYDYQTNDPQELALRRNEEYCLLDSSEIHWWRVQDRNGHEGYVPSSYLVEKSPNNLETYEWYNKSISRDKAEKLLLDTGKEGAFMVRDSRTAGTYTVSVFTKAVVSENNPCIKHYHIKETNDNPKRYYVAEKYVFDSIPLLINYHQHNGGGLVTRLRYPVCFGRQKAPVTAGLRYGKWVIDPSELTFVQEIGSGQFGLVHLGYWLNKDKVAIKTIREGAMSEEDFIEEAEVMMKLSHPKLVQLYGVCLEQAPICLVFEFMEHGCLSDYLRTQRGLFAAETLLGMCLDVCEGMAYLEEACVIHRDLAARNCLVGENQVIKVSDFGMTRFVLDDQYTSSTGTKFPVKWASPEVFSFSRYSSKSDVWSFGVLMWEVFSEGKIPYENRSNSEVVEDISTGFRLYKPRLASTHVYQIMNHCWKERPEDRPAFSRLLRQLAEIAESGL

[7] = molecular target: Platelet-derived growth factor receptor beta (Homo sapiens, UniProt P09619); assay: Selectivity interaction (KinomeScan (DiscoverX)) EUB0001079a PDGFRB; conditions: at 1 µM
Platelet-derived growth factor receptor beta, sequence (P09619 whole entry): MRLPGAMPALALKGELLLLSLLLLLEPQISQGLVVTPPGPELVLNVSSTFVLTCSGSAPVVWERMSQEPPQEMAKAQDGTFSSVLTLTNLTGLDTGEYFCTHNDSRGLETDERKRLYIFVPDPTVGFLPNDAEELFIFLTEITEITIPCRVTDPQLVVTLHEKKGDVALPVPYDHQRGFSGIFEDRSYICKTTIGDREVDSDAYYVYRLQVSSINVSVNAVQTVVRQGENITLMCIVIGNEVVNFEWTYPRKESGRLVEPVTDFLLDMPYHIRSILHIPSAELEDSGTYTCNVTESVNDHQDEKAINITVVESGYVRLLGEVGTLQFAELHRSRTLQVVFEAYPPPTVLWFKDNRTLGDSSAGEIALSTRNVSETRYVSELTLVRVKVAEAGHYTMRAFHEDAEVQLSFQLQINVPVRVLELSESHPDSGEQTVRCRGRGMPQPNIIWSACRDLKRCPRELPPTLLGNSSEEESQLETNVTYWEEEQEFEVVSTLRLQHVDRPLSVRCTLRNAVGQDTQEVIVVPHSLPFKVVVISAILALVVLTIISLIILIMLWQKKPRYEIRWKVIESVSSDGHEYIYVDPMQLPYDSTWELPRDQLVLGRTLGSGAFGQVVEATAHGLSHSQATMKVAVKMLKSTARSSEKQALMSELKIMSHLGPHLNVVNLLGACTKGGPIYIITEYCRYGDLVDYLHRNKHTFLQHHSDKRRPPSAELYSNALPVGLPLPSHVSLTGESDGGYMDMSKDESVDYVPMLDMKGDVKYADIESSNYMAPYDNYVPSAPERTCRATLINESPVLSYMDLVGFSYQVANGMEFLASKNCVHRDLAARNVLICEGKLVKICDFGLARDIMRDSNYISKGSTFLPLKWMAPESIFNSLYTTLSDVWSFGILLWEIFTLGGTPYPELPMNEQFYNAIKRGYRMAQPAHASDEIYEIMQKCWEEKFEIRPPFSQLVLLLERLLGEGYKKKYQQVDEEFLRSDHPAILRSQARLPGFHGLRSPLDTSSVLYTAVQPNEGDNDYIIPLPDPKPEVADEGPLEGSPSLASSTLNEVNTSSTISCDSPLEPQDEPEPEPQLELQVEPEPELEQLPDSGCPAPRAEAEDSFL

[8] = molecular target: Serine/threonine-protein kinase 24 (Homo sapiens) (UniProt Q9Y6E0); assay: Selectivity interaction (KinomeScan (DiscoverX)) EUB0000092b STK24; conditions: at 10 µM
Serine/threonine-protein kinase 24 (Homo sapiens), sequence (Q9Y6E0 whole entry, looked up): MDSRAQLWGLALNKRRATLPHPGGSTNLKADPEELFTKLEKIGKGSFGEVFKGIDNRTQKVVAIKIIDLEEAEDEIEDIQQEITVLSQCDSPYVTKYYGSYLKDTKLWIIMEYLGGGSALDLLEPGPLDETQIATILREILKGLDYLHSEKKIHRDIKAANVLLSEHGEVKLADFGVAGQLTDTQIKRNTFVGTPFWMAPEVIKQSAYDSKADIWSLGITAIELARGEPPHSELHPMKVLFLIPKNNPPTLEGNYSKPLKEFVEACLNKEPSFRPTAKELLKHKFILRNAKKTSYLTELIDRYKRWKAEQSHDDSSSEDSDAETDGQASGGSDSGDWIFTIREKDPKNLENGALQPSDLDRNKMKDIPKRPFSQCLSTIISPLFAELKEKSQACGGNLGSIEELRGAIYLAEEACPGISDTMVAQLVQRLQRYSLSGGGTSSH

[9] = molecular target: T4, Cyclin-dependent kinase-like 2 (Homo sapiens) (UniProt Q92772); assay: Selectivity interaction (KinomeScan (DiscoverX)) EUB0001619a CDKL2; conditions: at 1 µM
T4 sequence (whole entry): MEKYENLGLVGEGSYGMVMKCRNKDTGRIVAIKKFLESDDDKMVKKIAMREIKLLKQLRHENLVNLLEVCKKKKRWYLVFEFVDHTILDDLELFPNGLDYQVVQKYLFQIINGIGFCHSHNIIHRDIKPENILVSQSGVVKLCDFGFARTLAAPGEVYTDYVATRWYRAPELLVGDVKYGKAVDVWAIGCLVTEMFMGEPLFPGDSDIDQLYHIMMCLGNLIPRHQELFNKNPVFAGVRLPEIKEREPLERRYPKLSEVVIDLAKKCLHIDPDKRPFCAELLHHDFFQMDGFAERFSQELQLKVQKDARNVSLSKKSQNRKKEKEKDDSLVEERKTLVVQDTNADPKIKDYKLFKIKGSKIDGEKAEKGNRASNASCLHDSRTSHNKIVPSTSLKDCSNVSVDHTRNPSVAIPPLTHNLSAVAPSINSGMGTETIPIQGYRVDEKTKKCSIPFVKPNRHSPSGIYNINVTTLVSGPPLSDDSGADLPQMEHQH

Dual specificity mitogen-activated protein kinase kinase 2 (Homo sapiens), sequence (P36507 whole entry): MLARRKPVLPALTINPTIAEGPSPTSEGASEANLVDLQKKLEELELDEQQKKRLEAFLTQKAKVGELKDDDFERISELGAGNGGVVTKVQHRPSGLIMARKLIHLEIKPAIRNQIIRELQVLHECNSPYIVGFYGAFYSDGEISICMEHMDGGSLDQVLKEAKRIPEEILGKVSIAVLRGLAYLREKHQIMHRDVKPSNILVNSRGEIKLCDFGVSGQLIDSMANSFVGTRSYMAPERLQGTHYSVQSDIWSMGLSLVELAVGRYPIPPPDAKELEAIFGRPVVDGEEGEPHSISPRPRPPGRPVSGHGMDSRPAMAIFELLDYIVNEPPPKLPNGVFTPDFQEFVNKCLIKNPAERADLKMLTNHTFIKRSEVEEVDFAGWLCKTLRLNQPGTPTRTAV

% of inhibition [1]: 8.68%
Structure (SMILES): Cn1cc(-n2cnc3c(NCc4nc5cc(Cl)c(Cl)cc5[nH]4)nc(N4CCOCC4)nc32)cn1

Structure (SMILES): O=C(NOC[C@H](O)CO)c1ccc(F)c(F)c1Nc1ccc(I)cc1F
% of control [2]: 100%

Structure (SMILES): CNC(=O)Nc1ccc(-c2nc(N3CC4CCC(C3)O4)c3cnn(C4CCC5(CC4)OCCO5)c3n2)cc1
% of control [3]: 100%

% of inhibition [4]: 34%
Structure (SMILES): CC[C@@H]1[C@H](F)C(=O)N[C@@H]1COc1nccc2cc(C(N)=O)c(OC)cc12 [ZIMLOVISERTIB]

Structure (SMILES): CN(C)CCOc1ccc(-c2nc(-c3ccncc3)c(-c3ccc4c(c3)CC/C4=N\O)[nH]2)cc1
% of control [5]: 100%

Structure (SMILES): Nc1cnc(N2CCc3cc(S(=O)(=O)Nc4c(F)cc(Cl)cc4F)cc(N4CCCC4=O)c32)nc1 [TP-020n]
% of control [6]: 100%
% of control [7]: 100%

Structure (SMILES): CCC(=O)N1CCN(c2ccc(-n3c(=O)ccc4cnc5ccc(-c6cnc7ccccc7c6)cc5c43)cc2C(F)(F)F)CC1
% of control [8]: 100%

Structure (SMILES): N#Cc1cccc(-c2c[nH]c3ncnc(N4CCOCC4)c23)c1
% of control [9]: 98%
